Reference: ChEMBL document CHEMBL3259703, “Synthesis and preliminary biological evaluation of 1,2,3-triazole-Jaspine B hybrids as potential cytotoxic agents” (Eur J Med Chem, 2014)

Experiments:
Format in all cases: functional, cell-based
MCF7 = test: Antiproliferative activity against human MCF7 cells after 48 hrs by MTT assay; details: MCF7, 48 h
[1] = Antiproliferative activity against human EC9706 cells after 48 hrs by MTT assay; details: EC9706, 48 h
MGC-803 = test: Antiproliferative activity against human MGC803 cells after 48 hrs by MTT assay; details: MGC-803, 48 h

Row | Compound | IC50 (MCF7) [µM] | IC50 [1] [µM] | IC50 (MGC-803) [µM]
1 | CCCCCCCCn1cc(COC[C@@H]2OC[C@H](N)[C@@H]2O)nn1 | 28.1 | 44.3 | 70.4
2 | CCCCCCCCCCCCn1cc(COC[C@@H]2OC[C@H](N)[C@@H]2O)nn1 | 2.21 | 16 | 21.4
3 | CCCCCCCCCCCCCC[C@@H]1OC[C@H](N)[C@@H]1O [PACHASTRISSAMINE] | 4.84 | 6.12 | 5.1
4 | CCCCCCCCCCCCn1cc(COC[C@@H]2OC[C@H](N)[C@H]2O)nn1 | 2.62 | 93.8 | 115
5 | CCCCCCCCCCn1cc(COC[C@@H]2OC[C@H](N)[C@@H]2O)nn1 | 9.64 | 15.6 | 8.78
6 | CCCCCCCCn1cc(COC[C@@H]2OC[C@H](N)[C@H]2O)nn1 | > 128 | > 128 | > 128
7 | CCCCCCCCCn1cc(COC[C@@H]2OC[C@H](N)[C@@H]2O)nn1 | 12.4 | 20.1 | 13.8
8 | CCCCCCCCCn1cc(COC[C@@H]2OC[C@H](N)[C@H]2O)nn1 | > 128 | > 128 | > 128
9 | CCCCCCCCCCCCCCn1cc(COC[C@@H]2OC[C@H](N)[C@H]2O)nn1 | 2.45 | 6.68 | 8.79
